Legend:
[1] = Solubility / saturation solubility of cefuroximaxetil; format: physicochemical
[2] = cited from earlier work; for Solubility of the active ingredient (dissolved): after 45 minutes, standard method USP 23 page 316
[3] = Storage stability of the crystalline modification at elevated temperature; format: physicochemical
Experimental: The crystalline modification of cefuroximaxetil according to the invention is stable in storage. […] Even after storage for 2 months at 40° C. and 75% rel. atmospheric humidity, the content of the comparatively easily formed Δ^3-degradation product is still below 1.0 wt. %, which is indicative of excellent stability of the modification according to the invention.

[4] = Relative stability of binary mixtures of the modifications in water; format: physicochemical

CO/N=C(\C(=O)N[C@@H]1C(=O)N2C(C(=O)OC(C)OC(C)=O)=C(COC(N)=O)CS[C@H]12)c1ccco1 (stereo partly drawn) [Cefuroximaxetil, 1-acetoxyethyl ester of cefuroxime, i.e. of (6R,7R)-3-carbamoyloxymethyl-7-[(Z)-2-(fur-2-yl)-2-methoxyiminoacetamido]ceph-3-em-4-carboxylic acid]
Saturation solubility ([1]; in the dissolution medium (1000 ml), artificial gastric juice + Tween 80): 600 mg | Solubility ([1]; largely pH-independent): approx. 0.5 mg/ml

CO/N=C(\C(=O)N[C@@H]1C(=O)N2C(C(=O)OC(C)OC(C)=O)=C(COC(N)=O)CS[C@H]12)c1ccco1 (stereo partly drawn) [α-modification, cefuroximaxetil]
Solubility when tested according to USP 23 ([2]; minimum: 60% in 15 minutes, 75% within 45 minutes): does not achieve the specified minimum solubility

CO/N=C(\C(=O)N[C@@H]1C(=O)N2C(C(=O)OC(C)OC(C)=O)=C(COC(N)=O)CS[C@H]12)c1ccco1 (stereo partly drawn) [β-modification, cefuroximaxetil]
Solubility of the active ingredient (dissolved) [2]: over 40%

CO/N=C(\C(=O)N[C@@H]1C(=O)N2C(C(=O)OC(C)OC(C)=O)=C(COC(N)=O)CS[C@H]12)c1ccco1 (some centres unmarked) [γ-modification, cefuroximaxetil]
Solubility of the active ingredient (dissolved) [2]: 73.0%

CO/N=C(\C(=O)N[C@@H]1C(=O)N2C(C(=O)OC(C)OC(C)=O)=C(COC(N)=O)CS[C@H]12)c1ccco1 (some centres unmarked) [δ-modification, cefuroximaxetil]
Change to the composition, chemically (decomposition products) or physically (solubility, X-ray diffractogram) ([3]; after storage at elevated temperature): no significant change | Content of Δ^3-degradation product ([3]; after storage for 2 months at 40° C. and 75% rel. atmospheric humidity): below 1.0 wt. % | Stability relative to the α-, β- and γ-modification [4]: stabler
